According to patent US4719223A, “Imidazolethiol dopamine-beta-hydroxylase inhibitors” (SmithKline Beckman Corporation, priority 1985, dated 1988):
Read-outs that look alike come from different tables or passages of the source. Values belong to the compound of their own block, whether it stands above or below them.

What was measured:
[1] = target: T1, dopamine-β-hydroxylase (DBH) (Bos taurus, UniProt P15101); assay: in vitro DBH inhibition (conversion of tyramine to octopamine, absorbance at 330 nm); format: biochemical; conditions: for DBH inhibiting activity: phenolic hydroxy group replaced by isostere
T1 sequence (P15101 1-610): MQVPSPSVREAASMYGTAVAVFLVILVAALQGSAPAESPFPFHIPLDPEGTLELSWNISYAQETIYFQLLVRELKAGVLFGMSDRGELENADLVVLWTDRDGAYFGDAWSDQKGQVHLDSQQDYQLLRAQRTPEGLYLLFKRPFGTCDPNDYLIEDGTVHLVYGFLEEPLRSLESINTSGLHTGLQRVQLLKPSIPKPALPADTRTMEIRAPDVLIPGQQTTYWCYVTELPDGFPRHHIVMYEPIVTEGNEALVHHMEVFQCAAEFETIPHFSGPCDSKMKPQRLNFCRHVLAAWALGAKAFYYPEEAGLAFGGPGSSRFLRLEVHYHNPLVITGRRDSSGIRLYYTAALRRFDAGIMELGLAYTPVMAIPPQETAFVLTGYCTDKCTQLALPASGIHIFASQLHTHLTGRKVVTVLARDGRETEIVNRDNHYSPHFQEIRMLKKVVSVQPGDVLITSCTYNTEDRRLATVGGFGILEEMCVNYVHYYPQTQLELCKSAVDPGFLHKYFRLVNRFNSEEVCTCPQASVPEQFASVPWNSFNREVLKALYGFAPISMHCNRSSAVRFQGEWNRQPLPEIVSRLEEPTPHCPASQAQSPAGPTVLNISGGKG
Procedure: Because the compounds of Formula I inhibit DBH activity, they have therapeutic value as diuretic, natriuretic, cardiotonic, antihypertensive and vasodilator agents, as well as antiulcerogenic and anti-Parkinsonian agents. Listed in Table I are the compounds of the invention that were tested for in vitro DBH inhibition by a standard procedure for assaying conversion of tyramine to octopamine in the presence of DBH. J. J. Pisano, et al., Biochim. Biophys. Acta; 43, […] (1960). Octopamine was assayed following sodium periodate oxidation to p-hydroxybenzaldehyde by measuring spectrophotometric absorbance at 330 nm. In Table I, inhibition is given in molar concentration of compound at which DBH activity was halved (IC50). Melting points (mp) are given in °C.
This testing was performed using compounds prepared by substituting various phenolic isosteres for the phenolic hydroxy group of another DBH inhibitor, 1-(3',5'-difluoro-4'-hydroxybenzyl)imidazole-2-thiol (U.S. patent application Ser. No. 590,665, filed Mar. 19, 1984).

DBH [2] = conditions: cited from earlier work; for mode of DBH inhibition: apparent, phenethylamine analogues; for DBH inhibition: literature reports
[3] = Ehrreich et al. 1976; cited from earlier work
[4] = test system: peripheral dopamine (DA) and norepinephrine (NE) levels; assay: in vivo effect on peripheral dopamine (DA) and norepinephrine (NE) levels; parameters: species or system spontaneously hypertensive rats; conditions: 50 mg/kg orally, twice, about 18 h apart, sacrificed about 2 h after second dose; for DA/NE Ratio / DA: p < 0.001; for NE / DA: μg per gram of tissue
Procedure: One of the compounds of the invention was tested for its effect in vivo on peripheral dopamine (DA) and norepinephrine (NE) levels substantially by the procedure of DaPrada and Zurcher, Life Sciences, 19, 1161, (1976). Groups of five spontaneously hypertensive rats were dosed orally, twice, the second dose approximately 18 hours after the first, and were sacrificed about 2 hours after the second dose.

[5] = mean arterial blood pressure in spontaneously hypertensive rats; format: in vivo; conditions: 50 mg/kg intraperitoneally; 15 min
Procedure: Further, spontaneously hypertensive rats were dosed with a suspension or solution of 1-(4'-amino-3',5'-difluorobenzyl)imidazole-2-thiol at a dose of 50 mg/kg intraperitoneally, and mean arterial blood pressure was monitored for 260 minutes using indwelling cannulae positioned in the tail arteries. Approximate forty percent reductions in blood pressure were observed fifteen minutes following administration of this compound. At 260 minutes after administration of this compound, blood pressure remained reduced by approximately ten percent when compared to vehicle-treated controls.

DBH [6] = conditions: Friedman et al. 1978; significance uncertain; cited from earlier work
[7] = Teresawa et al. 1971; cited from earlier work
[8] = in vitro, tyramine to octopamine, read-out: IC50 (molar concentration of compound at which DBH activity was halved)

DBH inhibiting activity ([1]; in vitro): devoid of DBH inhibiting activity
Compound: O=CNc1c(F)cc(Cn2ccnc2S)cc1F [--NHCHO]

Compound: NOCc1ccccc1 [Benzyloxyamine, benzyloxyamine]
mode of DBH inhibition (DBH [2]): competitive inhibitors

Compound: O=C(O)c1ccc(CCC(Br)CBr)cn1 (stereo not shown) [5-(3,4-dibromobutyl)picolinic acid]
DBH inhibition (DBH [2]): DBH inhibitors

Compound: CCCCc1ccc(C(N)=O)nc1 [Bupicomide, 5-(n-butyl)picolinamine]
DBH inhibition (DBH [2]): DBH inhibitor
antihypertensive activity [3]: antihypertensive activity

IC50 ([1]; comparison compound of U.S. patent application Ser. No. 590,665, read-out: IC50 of comparison DBH inhibitor): 0.08 µM
Compound: Oc1c(F)cc(Cn2cc[nH]c2=S)cc1F [1-(3',5'-difluoro-4'-hydroxybenzyl)imidazole-2-thiol]

IC50 [1, 8]: 1.2 µM
Compound: Nc1c(F)cc(Cn2ccnc2S)cc1F [1-(4'-amino-3',5'-difluorobenzyl)imidazole-2-thiol]
DA/NE Ratio [4]: 0.151
NE [4]: 5.53 µg/g
DA [4]: 0.821 µg/g
reduction in blood pressure, fifteen minutes after administration [5]: forty

DBH inhibiting activity ([1]; in vitro): devoid of DBH inhibiting activity
Compound: NS(=O)(=O)Nc1c(F)cc(Cn2ccnc2S)cc1F [--NHSO2 NH2]

Compound: phenylpicolinic acid
DBH inhibitory activity relative to fusaric acid (DBH [2]; Runti et al. 1980): twice the inhibitory activity of fusaric acid

DBH inhibiting activity ([1]; in vitro): devoid of DBH inhibiting activity
Compound: O=C(Nc1c(F)cc(Cn2ccnc2S)cc1F)C(F)(F)F [--NHCOCF3]

IC50 [1, 8]: 3.1 µM
Compound: Nc1c(Cl)cc(Cn2ccnc2S)cc1Cl [1-(4'-amino-3',5'-dichlorobenzyl)imidazole-2-thiol]

Compound: C[C@](N)(Cc1ccc(O)c(O)c1)C(=O)O [alpha-methyl-DOPA]
DBH levels in treated patients (DBH [6]): lowered DBH levels

Compound: COC(=O)[C@H]1[C@H]2C[C@@H]3c4[nH]c5cc(OC)ccc5c4CCN3C[C@H]2C[C@@H](OC(=O)c2cc(OC)c(OC)c(OC)c2)[C@@H]1OC [reserpine]
DBH levels in treated patients (DBH [6]): lowered DBH levels

DBH inhibiting activity ([1]; in vitro): devoid of DBH inhibiting activity
Compound: CS(=O)(=O)Cc1c(F)cc(Cn2ccnc2S)cc1F [--CH2 SO2 CH3]

Compound: O=C(O)c1ccc(CCCCCl)cn1 [5-(4-chlorobutyl)picolinic acid]
DBH inhibition (DBH [2]): inhibit DBH

Compound: NNCc1ccccc1 [benzylhydrazine]
mode of DBH inhibition (DBH [2]): competitive inhibitors

Compound: CCCCc1ccc(C(=O)O)nc1 [Fusaric acid]
DA/NE Ratio [4]: 0.0937
NE [4]: 5.63 µg/g
DA [4]: 0.529 µg/g
hepatotoxicity [7]: hepatotoxic

Compound: CN(C)C(=S)SCc1ccc(C(=O)O)nc1 [5-(dimethyldithiocarbamoyl)methylpicolinic acid]
DBH inhibition (DBH [2]): DBH inhibitors
